Experimental data: paper PMC9350911, “Protein–Calixarene Complexation: From Recognition to Assembly” (Accounts of Chemical Research, 2022)

How the values were obtained:
Format in all cases: binding
cytochrome c (cyt c) [1] = biological target: T1, cytochrome c (cyt c) (Saccharomyces cerevisiae, UniProt P00044); assay: ITC; X-ray cocrystal structure; conditions: read-out: apparent dissociation constant; cited from earlier work
T1 construct: gene CYC1

cytochrome c (cyt c) [2] = biological target: T1, cytochrome c (cyt c); assay: ITC; X-ray cocrystal structure; NMR; SECMALS
[3] = biological target: Penicillium antifungal protein (PAF) (Penicillium chrysogenum, UniProt Q01701); assay: ITC; X-ray cocrystal structure; NMR
Penicillium antifungal protein (PAF), sequence (Q01701 38-92 limits assumed): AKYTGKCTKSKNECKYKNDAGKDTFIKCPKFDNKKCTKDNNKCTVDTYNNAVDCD

cytochrome c (cyt c) [4] = biological target: T1, cytochrome c (cyt c); assay: ITC; X-ray cocrystal structure; NMR; conditions: read-out: apparent dissociation constant; cited from earlier work

T1 sequence (P00044 2-109): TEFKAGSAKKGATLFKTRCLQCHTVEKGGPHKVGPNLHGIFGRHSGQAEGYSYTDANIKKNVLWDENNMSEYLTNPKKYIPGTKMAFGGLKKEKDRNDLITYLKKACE

For `O=S(=O)(O)c1cc2c(O)c(c1)Cc1cc(S(=O)(=O)O)cc(c1O)Cc1cc(S(=O)(=O)O)cc(c1O)Cc1cc(Br)cc(c1O)C2` [bromo-sulfonato-calix[4]arene], the Kd (cytochrome c (cyt c) [1]) is given as 20 µM.
For `O=P(O)(O)c1cc2c(O)c(c1)Cc1cc(P(=O)(O)O)cc(c1O)Cc1cc(P(=O)(O)O)cc(c1O)Cc1cc(P(=O)(O)O)cc(c1O)Cc1cc(P(=O)(O)O)cc(c1O)Cc1cc(P(=O)(O)O)cc(c1O)C2` [phosphonato-calix[6]arene], the binding affinity (cytochrome c (cyt c) [2]) was “the ITC data indicated a binding affinity in the low micromolar range”.
In the case of `O=S(=O)(O)c1cc2c(O)c(c1)Cc1cc(S(=O)(=O)O)cc(c1O)Cc1cc(S(=O)(=O)O)cc(c1O)Cc1cc(S(=O)(=O)O)cc(c1O)C2` [sulfonato-calix[4]arene], the binding affinity [3] is given as “Micromolar binding affinities were determined by ITC” and the Kd (cytochrome c (cyt c) [4]) is given as 30 µM.
In the case of `O=S(=O)(O)c1cc2c(O)c(c1)Cc1cc(S(=O)(=O)O)cc(c1O)Cc1cc(S(=O)(=O)O)cc(c1O)Cc1cc(S(=O)(=O)O)cc(c1O)Cc1cc(S(=O)(=O)O)cc(c1O)Cc1cc(S(=O)(=O)O)cc(c1O)C2` [sulfonato-calix[6]arene], the binding affinity [3] is reported as “Micromolar binding affinities were determined by ITC”.
